# According to EP2060252A1, “New formulation of galactosylceramide derivatives” (Wittycell, priority 2007, dated 2009):
# Key:
# [1] = Micelle to vesicle phase transition upon dilution: aspect; assay type: physicochemical; conditions: mixed micellar solution from sodium taurocholate and PBS57 (50 µg/mL)
# Experimental: It is well established that phospholipids/bile salt mixed aggregates are going through a phase transition to form vesicles (liposomes) once diluted.
# The same experiment was carried out on a mixed micellar solution obtained from sodium taurocholate and PBS57 (50 µg/mL).
# [2] = Mixed micelles with bile salts: macroscopic aspect after reconstitution; assay type: physicochemical; conditions: for Aspect of the solution after reconstitution: PBS57 200 µg/mL; for Macroscopic observation right after reconstitution with 5% glucose: PBS57 50 µg/mL, ratio bile salt / PBS57 1/1
# Experimental: The mixed-micelle solution manufacturing process requires co-solubilization of the lipid and the bile salt into a solvent (ethanol) that is then evaporated before the final aqueous medium is added to obtain the mixed-micellar solution. A 5% glucose solution was used as the aqueous reconstitution medium here.
# Both sodium taurocholate and deoxycholate were tested. A first indication that the mixed aggregates are truly formed is the clear aspect of the solution.
# PBS57 concentration in the above 2 experiments was 50 µg/mL. The ratio bile salt / PBS57 was here 1/1.
# Solutions of PBS57 at 200 µg/mL associated (equimolar ratio) to sodium taurocholate or sodium deoxycholate were manufactured by the same protocol.
# [3] = water
Aspect upon dilution [1],Aspect of the solution after reconstitution ([2]; equimolar ratio to sodium deoxycholate),Aspect of the solution after reconstitution ([2]; equimolar ratio to sodium taurocholate),Macroscopic observation right after reconstitution with 5% glucose ([2]; excipient Taurocholate),Thermodynamic aqueous solubility [3],Molecule,Macroscopic observation right after reconstitution with 5% glucose ([2]; excipient Deoxycholate)
slightly turbid suspension,perfectly clear,perfectly clear,Slightly turbid,–,CCCCCCCC/C=C\CCCCCCCCCCCCCC(=O)N[C@@H](CO[C@H]1O[C@H](CNC(C)=O)[C@H](O)[C@H](O)[C@H]1O)[C@H](O)[C@H](O)CCCCCCCCCCCCCC [PBS57],"Turbid with large aggregates, flocculation slowly turning to sedimentation"
–,–,–,–,below 5 µg/mL,α-galactosylceramide [α-GC],–
